# Literature values in patent publication US20230233572A1, “OPHTHALMIC COMPOSITIONS COMPRISING A COMBINATION OF FLUOROQUINOLONE ANTIBACTERIAL AGENT AND AN ANTI-INFLAMMATORY AGENT” (priority 2020, published 2023).
# Test system: corneal surface of rabbit eyes
# Conditions: in vivo
structure (smiles),measurement,value
"CC(O)COC[C@H]1O[C@@H]2O[C@H]3[C@H](O)[C@@H](O)[C@@H](O[C@H]4[C@H](O)[C@@H](O)[C@@H](O[C@H]5[C@H](O)[C@@H](O)[C@@H](O[C@H]6[C@H](O)[C@@H](O)[C@@H](O[C@H]7[C@H](O)[C@@H](O)[C@@H](O[C@H]8[C@H](O)[C@@H](O)[C@@H](O[C@H]1[C@H](O)[C@H]2O)O[C@@H]8COCC(C)O)O[C@@H]7COCC(C)O)O[C@@H]6COCC(C)O)O[C@@H]5COCC(C)O)O[C@@H]4COCC(C)O)O[C@@H]3COCC(C)O (stereo partly drawn) [HP-β-CD, hydroxypropyl-β-cyclodextrin]",Tolerance by the corneal surface,well tolerated
same,Toxicity or irritation in rabbit eyes,not to be toxic or irritating
